Measurements taken from PubChem BioAssay (NCI).
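Dose response: 5 concentrations. Exposure: 48 h. Format: 96-well plates. Endpoint: linear interpolation; highest concentration if not reached. TGI: concentration producing complete growth inhibition.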

Legend:
Assay in all cases: NCI-60 cell line screen, 48 h
RPMI-8226 leukemia = system: RPMI-8226 leukemia
MDA-N = system: MDA-N
NCI-H522 lung = system: NCI-H522 lung
OVCAR-8 ovarian = system: OVCAR-8 ovarian
NCI/ADR-RES ovarian = system: NCI/ADR-RES ovarian
TK-10 renal = system: TK-10 renal
K-562 leukemia = system: K-562 leukemia
EKVX NSCLC = system: EKVX NSCLC
MDA-MB-435 = system: MDA-MB-435
OVCAR-3 ovarian = system: OVCAR-3 ovarian
SN12C renal = system: SN12C renal
A498 renal = system: A498 renal
A549 NSCLC = system: A549 NSCLC
COLO 205 colon = system: COLO 205 colon
UACC-62 melanoma = system: UACC-62 melanoma
DU-145 prostate = system: DU-145 prostate
NCI-H226 lung = system: NCI-H226 lung
LOX IMVI melanoma = system: LOX IMVI melanoma
MCF7 breast = system: MCF7 breast
HOP-92 NSCLC = system: HOP-92 NSCLC
UACC-257 melanoma = system: UACC-257 melanoma
SW-620 colon = system: SW-620 colon
PC-3 prostate = system: PC-3 prostate
SK-MEL-28 melanoma = system: SK-MEL-28 melanoma
HOP-62 NSCLC = system: HOP-62 NSCLC
UO-31 renal = system: UO-31 renal
ACHN renal = system: ACHN renal
HCC-2998 colon = system: HCC-2998 colon
IGROV1 ovarian = system: IGROV1 ovarian
HCT-15 colon = system: HCT-15 colon
MALME-3M melanoma = system: MALME-3M melanoma
MOLT-4 leukemia = system: MOLT-4 leukemia
HCT-116 colon = system: HCT-116 colon
M14 melanoma = system: M14 melanoma
SF-295 CNS = system: SF-295 CNS
SF-268 CNS = system: SF-268 CNS
BT-549 breast = system: BT-549 breast
MDA-MB-231 breast = system: MDA-MB-231 breast
OVCAR-4 ovarian = system: OVCAR-4 ovarian
U251 CNS = system: U251 CNS
HT29 colon = system: HT29 colon
NCI-H460 lung = system: NCI-H460 lung
SK-MEL-5 melanoma = system: SK-MEL-5 melanoma
786-0 renal = system: 786-0 renal
T-47D breast = system: T-47D breast
NCI-H23 lung = system: NCI-H23 lung
HS 578T breast = system: HS 578T breast
SNB-19 CNS = system: SNB-19 CNS
RXF 393 renal = system: RXF 393 renal
SR leukemia = system: SR leukemia
CAKI-1 renal = system: CAKI-1 renal
OVCAR-5 ovarian = system: OVCAR-5 ovarian
SF-539 CNS = system: SF-539 CNS
SNB-75 CNS = system: SNB-75 CNS
KM12 colon = system: KM12 colon
SK-MEL-2 melanoma = system: SK-MEL-2 melanoma
SK-OV-3 ovarian = system: SK-OV-3 ovarian
HL-60(TB) leukemia = system: HL-60(TB) leukemia
CCRF-CEM leukemia = system: CCRF-CEM leukemia

## C[As+](C)(c1ccc(Br)c([N+](=O)[O-])c1)c1ccc(Br)c([N+](=O)[O-])c1.O=[N+]([O-])O
RPMI-8226 leukemia
  TGI: > 100 µM
MDA-N
  TGI: > 100 µM
NCI-H522 lung
  TGI: > 100 µM
OVCAR-8 ovarian
  TGI: > 100 µM
NCI/ADR-RES ovarian
  TGI: > 100 µM
TK-10 renal
  TGI: > 100 µM
K-562 leukemia
  TGI: > 100 µM
EKVX NSCLC
  TGI: > 100 µM
MDA-MB-435
  TGI: > 100 µM
OVCAR-3 ovarian
  TGI: > 100 µM
SN12C renal
  TGI: > 100 µM
A498 renal
  TGI: > 100 µM
A549 NSCLC
  TGI: > 100 µM
COLO 205 colon
  TGI: > 100 µM
UACC-62 melanoma
  TGI: > 100 µM
DU-145 prostate
  TGI: > 100 µM
NCI-H226 lung
  TGI: > 100 µM
LOX IMVI melanoma
  TGI: > 100 µM
MCF7 breast
  TGI: > 100 µM
HOP-92 NSCLC
  TGI: > 100 µM
UACC-257 melanoma
  TGI: > 100 µM
SW-620 colon
  TGI: > 100 µM
PC-3 prostate
  TGI: > 100 µM
SK-MEL-28 melanoma
  TGI: 76.8 µM
HOP-62 NSCLC
  TGI: > 100 µM
UO-31 renal
  TGI: > 100 µM
ACHN renal
  TGI: > 100 µM
HCC-2998 colon
  TGI: > 100 µM
IGROV1 ovarian
  TGI: > 100 µM
HCT-15 colon
  TGI: > 100 µM
MALME-3M melanoma
  TGI: 34.1 µM
MOLT-4 leukemia
  TGI: > 100 µM
HCT-116 colon
  TGI: > 100 µM
M14 melanoma
  TGI: > 100 µM
SF-295 CNS
  TGI: > 100 µM
SF-268 CNS
  TGI: > 100 µM
BT-549 breast
  TGI: > 100 µM
MDA-MB-231 breast
  TGI: > 100 µM
OVCAR-4 ovarian
  TGI: > 100 µM
U251 CNS
  TGI: > 100 µM
HT29 colon
  TGI: > 100 µM
NCI-H460 lung
  TGI: > 100 µM
SK-MEL-5 melanoma
  TGI: 22 µM
786-0 renal
  TGI: > 100 µM
T-47D breast
  TGI: > 100 µM
NCI-H23 lung
  TGI: > 100 µM
HS 578T breast
  TGI: > 100 µM
SNB-19 CNS
  TGI: > 100 µM
RXF 393 renal
  TGI: > 100 µM
SR leukemia
  TGI: > 100 µM
CAKI-1 renal
  TGI: > 100 µM
OVCAR-5 ovarian
  TGI: > 100 µM
SF-539 CNS
  TGI: > 100 µM
SNB-75 CNS
  TGI: > 100 µM
KM12 colon
  TGI: > 100 µM
SK-MEL-2 melanoma
  TGI: > 100 µM
SK-OV-3 ovarian
  TGI: > 100 µM

## CN(N)c1nc(N)c(C#N)c(C#N)c1C#N
RPMI-8226 leukemia
  TGI: > 10 µM
MDA-N
  TGI: > 10 µM
NCI-H522 lung
  TGI: > 10 µM
OVCAR-8 ovarian
  TGI: > 10 µM
NCI/ADR-RES ovarian
  TGI: > 10 µM
TK-10 renal
  TGI: > 10 µM
HL-60(TB) leukemia
  TGI: > 10 µM
K-562 leukemia
  TGI: > 10 µM
MDA-MB-435
  TGI: > 10 µM
OVCAR-3 ovarian
  TGI: > 10 µM
SN12C renal
  TGI: > 10 µM
A549 NSCLC
  TGI: > 10 µM
COLO 205 colon
  TGI: > 10 µM
UACC-62 melanoma
  TGI: > 10 µM
DU-145 prostate
  TGI: > 10 µM
LOX IMVI melanoma
  TGI: > 10 µM
MCF7 breast
  TGI: > 10 µM
HOP-92 NSCLC
  TGI: > 10 µM
UACC-257 melanoma
  TGI: > 10 µM
SW-620 colon
  TGI: > 10 µM
PC-3 prostate
  TGI: > 10 µM
SK-MEL-28 melanoma
  TGI: > 10 µM
HOP-62 NSCLC
  TGI: > 10 µM
ACHN renal
  TGI: > 10 µM
HCC-2998 colon
  TGI: > 10 µM
IGROV1 ovarian
  TGI: > 10 µM
HCT-15 colon
  TGI: > 10 µM
MALME-3M melanoma
  TGI: > 10 µM
MOLT-4 leukemia
  TGI: > 10 µM
HCT-116 colon
  TGI: > 10 µM
M14 melanoma
  TGI: > 10 µM
SF-295 CNS
  TGI: > 10 µM
SF-268 CNS
  TGI: > 10 µM
BT-549 breast
  TGI: > 10 µM
MDA-MB-231 breast
  TGI: > 10 µM
OVCAR-4 ovarian
  TGI: > 10 µM
U251 CNS
  TGI: > 10 µM
HT29 colon
  TGI: > 10 µM
SK-MEL-5 melanoma
  TGI: > 10 µM
786-0 renal
  TGI: > 10 µM
T-47D breast
  TGI: > 10 µM
NCI-H23 lung
  TGI: > 10 µM
HS 578T breast
  TGI: > 10 µM
SNB-19 CNS
  TGI: > 10 µM
SR leukemia
  TGI: > 10 µM
CAKI-1 renal
  TGI: > 10 µM
OVCAR-5 ovarian
  TGI: > 10 µM
CCRF-CEM leukemia
  TGI: > 10 µM
SF-539 CNS
  TGI: > 10 µM
SNB-75 CNS
  TGI: > 10 µM
KM12 colon
  TGI: > 10 µM
SK-OV-3 ovarian
  TGI: > 10 µM
